{"source": "patent US8933230B2", "about": "“Phosphorus-containing group-substituted quinoline, its preparation process, medical composition containing the compounds and application” (priority 2011, dated 2015)", "assay_in_all_cases": "KinomeScan kinase panel", "assay_type_in_all_cases": "binding", "key": {"[1]": {"target": "T1, ABL1(F317L)-nonphosphorylated (Homo sapiens, UniProt P00519, F317L)", "T1 construct": "purchased DiscoveRx Corporation (KinomeScan)", "procedure,_shortened": "(§1)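 KinomeScan, 442 kinases incl. mutants; cpd 1000 nM; single-concentration inhibition.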"}, "[2]": {"target": "T2, ABL1(H396P)-phosphorylated (Homo sapiens, UniProt P00519, H396P)", "T2 construct": "purchased DiscoveRx Corporation (KinomeScan)", "procedure,_shortened": "as §1"}, "AURKB": {"target": "T3, AURKB (Homo sapiens, UniProt Q96GD4)", "T3 construct": "purchased DiscoveRx Corporation (KinomeScan)", "procedure,_shortened": "as §1"}, "CAMKK1": {"target": "T4, CAMKK1 (Homo sapiens, UniProt Q8N5S9)", "T4 construct": "purchased DiscoveRx Corporation (KinomeScan)", "procedure,_shortened": "as §1"}, "CDK2": {"target": "T5, CDK2 (Homo sapiens, UniProt P24941)", "T5 construct": "purchased DiscoveRx Corporation (KinomeScan)", "procedure,_shortened": "as §1"}, "CSNK1A1": {"target": "T6, CSNK1A1 (Homo sapiens, UniProt P48729)", "T6 construct": "purchased DiscoveRx Corporation (KinomeScan)", "procedure,_shortened": "as §1"}, "CSNK1A1L": {"target": "T7, CSNK1A1L (Homo sapiens, UniProt Q8N752)", "T7 construct": "purchased DiscoveRx Corporation (KinomeScan)", "procedure,_shortened": "as §1"}, "CSNK1G1": {"target": "T8, CSNK1G1 (Homo sapiens, UniProt Q9HCP0)", "T8 construct": "purchased DiscoveRx Corporation (KinomeScan)", "procedure,_shortened": "as §1"}, "DAPK3": {"target": "T9, DAPK3 (Homo sapiens, UniProt O43293)", "T9 construct": "purchased DiscoveRx Corporation (KinomeScan)", "procedure,_shortened": "as §1"}, "DCAMKL3": {"target": "T10, DCAMKL3 (Homo sapiens, UniProt Q9C098)", "T10 construct": "purchased DiscoveRx Corporation (KinomeScan)", "procedure,_shortened": "as §1"}, "EGFR(G719C)": {"target": "T11, EGFR(G719C) (Homo sapiens, UniProt P00533, G719C)", "T11 construct": "purchased DiscoveRx Corporation (KinomeScan)", "procedure,_shortened": "as §1"}, "EGFR(L747-S752del,P753S)": {"target": "T12, EGFR(L747-S752del,P753S) (Homo sapiens, UniProt P00533, DEL747-752/P753S)", "T12 construct": "purchased DiscoveRx Corporation (KinomeScan)", "procedure,_shortened": "as §1"}, "ERK2": {"target": "T13, ERK2 (Homo sapiens, UniProt P28482)", "T13 construct": "purchased DiscoveRx Corporation (KinomeScan)", "procedure,_shortened": "as §1"}, "FGR": {"target": "T14, FGR (Homo sapiens, UniProt P09769)", "T14 construct": "purchased DiscoveRx Corporation (KinomeScan)", "procedure,_shortened": "as §1"}, "FLT3": {"target": "T15, FLT3 (Homo sapiens, UniProt P36888)", "T15 construct": "purchased DiscoveRx Corporation (KinomeScan)", "procedure,_shortened": "as §1"}, "FLT3(K663Q)": {"target": "T16, FLT3(K663Q) (Homo sapiens, UniProt P36888, K663Q)", "T16 construct": "purchased DiscoveRx Corporation (KinomeScan)", "procedure,_shortened": "as §1"}, "FRK": {"target": "T17, FRK (Homo sapiens, UniProt P42685)", "T17 construct": "purchased DiscoveRx Corporation (KinomeScan)", "procedure,_shortened": "as §1"}, "GSK3B": {"target": "T18, GSK3B (Homo sapiens, UniProt P49841)", "T18 construct": "purchased DiscoveRx Corporation (KinomeScan)", "procedure,_shortened": "as §1"}, "HCK": {"target": "T19, HCK (Homo sapiens, UniProt P08631)", "T19 construct": "purchased DiscoveRx Corporation (KinomeScan)", "procedure,_shortened": "as §1"}, "JNK1": {"target": "T20, JNK1 (Homo sapiens, UniProt P45983)", "T20 construct": "purchased DiscoveRx Corporation (KinomeScan)", "procedure,_shortened": "as §1"}, "LATS1": {"target": "T21, LATS1 (Homo sapiens, UniProt O95835)", "T21 construct": "purchased DiscoveRx Corporation (KinomeScan)", "procedure,_shortened": "as §1"}, "LATS2": {"target": "T22, LATS2 (Homo sapiens, UniProt Q9NRM7)", "T22 construct": "purchased DiscoveRx Corporation (KinomeScan)", "T22 sequence (Q9NRM7 whole entry)": "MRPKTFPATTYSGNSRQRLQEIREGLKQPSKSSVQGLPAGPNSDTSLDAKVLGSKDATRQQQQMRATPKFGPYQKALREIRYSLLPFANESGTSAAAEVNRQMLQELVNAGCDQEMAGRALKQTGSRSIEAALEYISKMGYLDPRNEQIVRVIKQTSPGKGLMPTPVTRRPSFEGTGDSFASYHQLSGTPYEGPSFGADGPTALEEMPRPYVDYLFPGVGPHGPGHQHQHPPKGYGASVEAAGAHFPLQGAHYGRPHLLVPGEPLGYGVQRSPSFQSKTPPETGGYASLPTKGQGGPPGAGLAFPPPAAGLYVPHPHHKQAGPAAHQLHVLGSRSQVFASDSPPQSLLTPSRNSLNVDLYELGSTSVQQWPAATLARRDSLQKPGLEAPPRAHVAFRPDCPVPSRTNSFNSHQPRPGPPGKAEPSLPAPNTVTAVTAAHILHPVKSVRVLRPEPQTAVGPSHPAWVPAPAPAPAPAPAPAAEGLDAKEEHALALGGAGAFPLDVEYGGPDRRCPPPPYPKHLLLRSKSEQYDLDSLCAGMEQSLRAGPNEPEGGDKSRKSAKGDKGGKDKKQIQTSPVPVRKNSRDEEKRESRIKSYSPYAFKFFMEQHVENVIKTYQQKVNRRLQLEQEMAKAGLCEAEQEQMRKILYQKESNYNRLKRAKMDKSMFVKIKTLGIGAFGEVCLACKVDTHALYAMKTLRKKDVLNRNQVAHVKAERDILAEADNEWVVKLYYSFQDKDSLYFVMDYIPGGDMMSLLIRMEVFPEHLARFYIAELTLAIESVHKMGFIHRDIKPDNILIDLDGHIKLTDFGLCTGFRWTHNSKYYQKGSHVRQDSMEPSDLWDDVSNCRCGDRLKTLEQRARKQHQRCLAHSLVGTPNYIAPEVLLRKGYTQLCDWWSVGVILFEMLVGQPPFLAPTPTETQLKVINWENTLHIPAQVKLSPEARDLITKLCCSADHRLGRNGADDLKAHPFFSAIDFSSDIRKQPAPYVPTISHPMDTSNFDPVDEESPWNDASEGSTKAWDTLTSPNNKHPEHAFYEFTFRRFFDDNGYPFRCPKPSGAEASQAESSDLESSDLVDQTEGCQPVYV", "procedure,_shortened": "as §1"}, "MEK5": {"target": "T23, MEK5 (Homo sapiens, UniProt Q13163)", "T23 construct": "purchased DiscoveRx Corporation (KinomeScan)", "T23 sequence (Q13163 whole entry)": "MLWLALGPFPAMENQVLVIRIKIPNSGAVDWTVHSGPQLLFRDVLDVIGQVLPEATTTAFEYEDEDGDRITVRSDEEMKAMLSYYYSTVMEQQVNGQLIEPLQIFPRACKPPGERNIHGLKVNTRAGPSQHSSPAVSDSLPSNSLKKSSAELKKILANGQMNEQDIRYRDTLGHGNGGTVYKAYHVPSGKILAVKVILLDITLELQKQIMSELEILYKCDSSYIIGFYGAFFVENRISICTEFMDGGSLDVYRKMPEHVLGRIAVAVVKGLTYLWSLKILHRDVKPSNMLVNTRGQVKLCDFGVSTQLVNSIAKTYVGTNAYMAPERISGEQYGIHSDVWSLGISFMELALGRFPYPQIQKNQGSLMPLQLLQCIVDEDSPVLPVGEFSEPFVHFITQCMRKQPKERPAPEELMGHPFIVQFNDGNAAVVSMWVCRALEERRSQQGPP", "procedure,_shortened": "as §1"}, "MET": {"target": "T24, MET (Homo sapiens, UniProt P08581)", "T24 construct": "purchased DiscoveRx Corporation (KinomeScan)", "procedure,_shortened": "as §1"}, "PAK4": {"target": "T25, PAK4 (Homo sapiens, UniProt O96013)", "T25 construct": "purchased DiscoveRx Corporation (KinomeScan panel)", "procedure,_shortened": "as §1"}, "PIK3CA": {"target": "T26, PIK3CA (Homo sapiens, UniProt P42336)", "T26 construct": "purchased DiscoveRx Corporation (KinomeScan)", "T26 sequence (P42336 whole entry)": "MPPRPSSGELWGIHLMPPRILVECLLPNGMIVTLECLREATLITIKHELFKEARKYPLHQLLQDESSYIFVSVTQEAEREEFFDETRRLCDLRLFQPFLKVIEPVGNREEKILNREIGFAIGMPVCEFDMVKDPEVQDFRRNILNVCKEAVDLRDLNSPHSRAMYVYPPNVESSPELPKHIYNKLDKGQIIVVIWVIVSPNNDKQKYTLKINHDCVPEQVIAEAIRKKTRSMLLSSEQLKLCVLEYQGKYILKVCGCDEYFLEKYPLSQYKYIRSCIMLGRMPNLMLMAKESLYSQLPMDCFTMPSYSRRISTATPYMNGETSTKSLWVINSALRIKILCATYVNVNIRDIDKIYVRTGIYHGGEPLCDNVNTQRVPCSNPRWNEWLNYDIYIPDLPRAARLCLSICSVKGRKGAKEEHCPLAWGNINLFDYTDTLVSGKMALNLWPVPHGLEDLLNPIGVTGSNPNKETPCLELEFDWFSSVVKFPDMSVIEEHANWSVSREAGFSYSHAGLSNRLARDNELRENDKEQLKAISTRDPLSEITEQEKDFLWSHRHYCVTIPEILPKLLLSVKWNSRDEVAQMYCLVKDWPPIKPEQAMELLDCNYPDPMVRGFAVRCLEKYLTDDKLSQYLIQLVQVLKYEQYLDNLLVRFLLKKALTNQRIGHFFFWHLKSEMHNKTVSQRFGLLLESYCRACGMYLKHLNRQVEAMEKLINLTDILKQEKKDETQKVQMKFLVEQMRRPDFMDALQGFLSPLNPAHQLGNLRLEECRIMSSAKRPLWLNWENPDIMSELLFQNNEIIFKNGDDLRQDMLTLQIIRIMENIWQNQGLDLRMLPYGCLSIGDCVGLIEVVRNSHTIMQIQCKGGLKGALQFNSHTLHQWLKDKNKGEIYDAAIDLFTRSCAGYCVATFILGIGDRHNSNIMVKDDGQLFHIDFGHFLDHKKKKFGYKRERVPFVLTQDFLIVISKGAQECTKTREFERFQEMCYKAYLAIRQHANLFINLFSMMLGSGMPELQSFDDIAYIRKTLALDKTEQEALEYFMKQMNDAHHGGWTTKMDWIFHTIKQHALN", "procedure,_shortened": "as §1"}, "PRP4": {"target": "T27, PRP4 (Homo sapiens, UniProt Q13523)", "T27 construct": "purchased DiscoveRx Corporation", "procedure,_shortened": "as §1"}, "RIOK1": {"target": "T28, RIOK1 (Homo sapiens, UniProt Q9BRS2)", "T28 construct": "purchased DiscoveRx Corporation", "procedure,_shortened": "as §1"}, "[3]": {"target": "T29, RPS6KA4(kin.Dom.1-N-termimal) (Homo sapiens, UniProt O75676)", "T29 construct": "kin.Dom.1; purchased DiscoveRx Corporation", "procedure,_shortened": "as §1"}, "SRMS": {"target": "T30, SRMS (Homo sapiens, UniProt Q9H3Y6)", "T30 construct": "purchased DiscoveRx Corporation (KinomeScan)", "procedure,_shortened": "as §1"}, "TAK1": {"target": "T31, TAK1 (Homo sapiens, UniProt O43318)", "T31 construct": "purchased DiscoveRx Corporation (KinomeScan)", "T31 sequence (O43318 whole entry)": "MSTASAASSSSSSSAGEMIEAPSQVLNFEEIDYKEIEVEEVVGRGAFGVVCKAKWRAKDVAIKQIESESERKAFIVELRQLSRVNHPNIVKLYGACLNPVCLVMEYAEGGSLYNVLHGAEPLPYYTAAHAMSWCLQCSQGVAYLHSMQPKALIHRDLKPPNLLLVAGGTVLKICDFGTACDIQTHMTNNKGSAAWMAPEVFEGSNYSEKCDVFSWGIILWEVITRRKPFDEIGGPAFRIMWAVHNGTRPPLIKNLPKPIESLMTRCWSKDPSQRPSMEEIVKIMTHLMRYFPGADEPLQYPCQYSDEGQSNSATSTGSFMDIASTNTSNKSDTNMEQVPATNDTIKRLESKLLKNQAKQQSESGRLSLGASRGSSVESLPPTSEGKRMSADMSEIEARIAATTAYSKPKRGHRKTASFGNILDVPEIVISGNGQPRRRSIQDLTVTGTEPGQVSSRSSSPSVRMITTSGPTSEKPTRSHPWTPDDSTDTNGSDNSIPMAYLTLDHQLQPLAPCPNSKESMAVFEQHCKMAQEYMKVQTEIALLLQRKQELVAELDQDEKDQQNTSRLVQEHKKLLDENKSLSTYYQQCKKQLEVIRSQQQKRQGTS", "procedure,_shortened": "as §1"}, "TLK2": {"target": "T32, TLK2 (Homo sapiens, UniProt Q86UE8)", "T32 construct": "purchased DiscoveRx Corporation (KinomeScan)", "T32 sequence (Q86UE8 whole entry)": "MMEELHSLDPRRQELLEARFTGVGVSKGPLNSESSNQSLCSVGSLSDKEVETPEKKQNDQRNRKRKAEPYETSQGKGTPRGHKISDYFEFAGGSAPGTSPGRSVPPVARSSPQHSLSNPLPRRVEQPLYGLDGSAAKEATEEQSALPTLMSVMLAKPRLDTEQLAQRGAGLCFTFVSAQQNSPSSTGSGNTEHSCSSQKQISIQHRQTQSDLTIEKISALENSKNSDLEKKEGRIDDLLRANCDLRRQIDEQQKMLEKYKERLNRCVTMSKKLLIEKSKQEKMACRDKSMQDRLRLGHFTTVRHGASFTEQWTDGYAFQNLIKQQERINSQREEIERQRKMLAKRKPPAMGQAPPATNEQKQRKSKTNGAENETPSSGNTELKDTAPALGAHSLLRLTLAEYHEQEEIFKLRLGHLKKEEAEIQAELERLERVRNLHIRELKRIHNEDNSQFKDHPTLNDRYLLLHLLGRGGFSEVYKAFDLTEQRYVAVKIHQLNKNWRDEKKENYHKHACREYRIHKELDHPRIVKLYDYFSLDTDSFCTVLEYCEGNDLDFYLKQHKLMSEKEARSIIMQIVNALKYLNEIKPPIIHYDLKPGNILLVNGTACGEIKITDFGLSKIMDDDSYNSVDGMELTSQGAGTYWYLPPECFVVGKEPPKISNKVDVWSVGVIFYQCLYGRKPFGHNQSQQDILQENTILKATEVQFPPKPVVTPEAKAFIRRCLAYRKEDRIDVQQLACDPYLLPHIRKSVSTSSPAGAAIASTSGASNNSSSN", "procedure,_shortened": "as §1"}, "TRKB": {"target": "T33, TRKB (Homo sapiens, UniProt Q16620)", "T33 construct": "purchased DiscoveRx Corporation (KinomeScan)", "procedure,_shortened": "as §1"}, "TRPM6": {"test_system": "TRPM6", "procedure,_shortened": "as §1"}, "ULK2": {"target": "T34, ULK2 (Homo sapiens, UniProt Q8IYT8)", "T34 construct": "purchased DiscoveRx Corporation (KinomeScan service)", "T34 sequence (Q8IYT8 whole entry)": "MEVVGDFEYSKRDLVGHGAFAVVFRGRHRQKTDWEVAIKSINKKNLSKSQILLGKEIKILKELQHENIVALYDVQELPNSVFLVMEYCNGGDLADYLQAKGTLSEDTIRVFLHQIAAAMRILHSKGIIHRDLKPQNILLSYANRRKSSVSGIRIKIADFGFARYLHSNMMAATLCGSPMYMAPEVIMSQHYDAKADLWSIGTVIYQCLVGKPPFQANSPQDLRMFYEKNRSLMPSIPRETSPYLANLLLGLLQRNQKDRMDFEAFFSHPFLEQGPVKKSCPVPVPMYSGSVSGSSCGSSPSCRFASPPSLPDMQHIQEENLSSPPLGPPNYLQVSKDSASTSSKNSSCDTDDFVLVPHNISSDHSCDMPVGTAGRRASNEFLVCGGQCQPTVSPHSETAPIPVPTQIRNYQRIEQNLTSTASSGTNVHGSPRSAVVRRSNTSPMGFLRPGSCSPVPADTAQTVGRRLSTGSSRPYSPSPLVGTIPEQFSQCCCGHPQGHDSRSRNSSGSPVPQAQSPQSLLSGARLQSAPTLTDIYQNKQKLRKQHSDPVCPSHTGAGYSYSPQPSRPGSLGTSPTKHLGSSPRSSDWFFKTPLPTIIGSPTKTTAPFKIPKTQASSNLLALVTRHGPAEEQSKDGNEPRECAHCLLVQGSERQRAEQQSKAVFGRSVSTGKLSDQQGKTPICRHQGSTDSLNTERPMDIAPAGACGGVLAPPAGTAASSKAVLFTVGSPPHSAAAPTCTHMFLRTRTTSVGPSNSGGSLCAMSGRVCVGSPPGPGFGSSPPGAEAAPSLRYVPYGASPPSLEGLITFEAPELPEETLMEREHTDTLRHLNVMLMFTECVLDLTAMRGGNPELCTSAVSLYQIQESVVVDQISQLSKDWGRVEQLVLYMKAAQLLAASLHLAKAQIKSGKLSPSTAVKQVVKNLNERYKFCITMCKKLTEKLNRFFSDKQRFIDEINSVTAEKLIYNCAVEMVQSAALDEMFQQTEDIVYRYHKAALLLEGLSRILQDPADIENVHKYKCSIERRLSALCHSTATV", "procedure,_shortened": "as §1"}}}
{"smiles": "CCOP(=O)(CN1CCC(COc2cc3nccc(Oc4ccc(NC(=O)C5(C(=O)Nc6ccc(F)cc6)CC5)cc4F)c3cc2OC)CC1)OCC", "note": "[Example 10, N1-[4-[[7-[[1-(diethoxyphosphorylmethyl)-4-piperidinyl]methoxyl]-6-methoxyl-4-quinolyl]oxyl]-3-fluorophenyl]-N1′-(4-fluorophenyl)cyclopropane-1,1-dicarboxamide]", "values": [{"measurement": "% Ctrl@1000 nM", "setting": "[1]", "result": 10, "unit": "% Ctrl"}, {"measurement": "% Ctrl@1000 nM", "setting": "[2]", "result": 63, "unit": "% Ctrl"}, {"measurement": "% Ctrl@1000 nM", "setting": "AURKB", "result": 74, "unit": "% Ctrl"}, {"measurement": "% Ctrl@1000 nM", "setting": "CAMKK1", "result": 32, "unit": "% Ctrl"}, {"measurement": "% Ctrl@1000 nM", "setting": "CDK2", "result": 100, "unit": "% Ctrl"}, {"measurement": "% Ctrl@1000 nM", "setting": "CSNK1A1", "result": 100, "unit": "% Ctrl"}, {"measurement": "% Ctrl@1000 nM", "setting": "CSNK1A1L", "result": 100, "unit": "% Ctrl"}, {"measurement": "% Ctrl@1000 nM", "setting": "CSNK1G1", "result": 100, "unit": "% Ctrl"}, {"measurement": "% Ctrl@1000 nM", "setting": "DAPK3", "result": 100, "unit": "% Ctrl"}, {"measurement": "% Ctrl@1000 nM", "setting": "DCAMKL3", "result": 100, "unit": "% Ctrl"}, {"measurement": "% Ctrl@1000 nM", "setting": "EGFR(G719C)", "result": 75, "unit": "% Ctrl"}, {"measurement": "% Ctrl@1000 nM", "setting": "EGFR(L747-S752del,P753S)", "result": 67, "unit": "% Ctrl"}, {"measurement": "% Ctrl@1000 nM", "setting": "ERK2", "result": 100, "unit": "% Ctrl"}, {"measurement": "% Ctrl@1000 nM", "setting": "FGR", "result": 35, "unit": "% Ctrl"}, {"measurement": "% Ctrl@1000 nM", "setting": "FLT3", "result": 2.3, "unit": "% Ctrl"}, {"measurement": "% Ctrl@1000 nM", "setting": "FLT3(K663Q)", "result": 0.55, "unit": "% Ctrl"}, {"measurement": "% Ctrl@1000 nM", "setting": "FRK", "result": 8.8, "unit": "% Ctrl"}, {"measurement": "% Ctrl@1000 nM", "setting": "GSK3B", "result": 100, "unit": "% Ctrl"}, {"measurement": "% Ctrl@1000 nM", "setting": "HCK", "result": 0.35, "unit": "% Ctrl"}, {"measurement": "% Ctrl@1000 nM", "setting": "JNK1", "result": 80, "unit": "% Ctrl"}, {"measurement": "% Ctrl@1000 nM", "setting": "LATS1", "result": 100, "unit": "% Ctrl"}, {"measurement": "% Ctrl@1000 nM", "setting": "LATS2", "result": 96, "unit": "% Ctrl"}, {"measurement": "% Ctrl@1000 nM", "setting": "MEK5", "result": 0.25, "unit": "% Ctrl"}, {"measurement": "% Ctrl@1000 nM", "setting": "MET", "result": 7.7, "unit": "% Ctrl"}, {"measurement": "% Ctrl@1000 nM", "setting": "PAK4", "result": 100, "unit": "% Ctrl"}, {"measurement": "% Ctrl@1000 nM", "setting": "PIK3CA", "result": 100, "unit": "% Ctrl"}, {"measurement": "% Ctrl@1000 nM", "setting": "PRP4", "result": 76, "unit": "% Ctrl"}, {"measurement": "% Ctrl@1000 nM", "setting": "RIOK1", "result": 100, "unit": "% Ctrl"}, {"measurement": "% Ctrl@1000 nM", "setting": "[3]", "result": 76, "unit": "% Ctrl"}, {"measurement": "% Ctrl@1000 nM", "setting": "SRMS", "result": 8.9, "unit": "% Ctrl"}, {"measurement": "% Ctrl@1000 nM", "setting": "TAK1", "result": 75, "unit": "% Ctrl"}, {"measurement": "% Ctrl@1000 nM", "setting": "TLK2", "result": 100, "unit": "% Ctrl"}, {"measurement": "% Ctrl@1000 nM", "setting": "TRKB", "result": 4, "unit": "% Ctrl"}, {"measurement": "% Ctrl@1000 nM", "setting": "TRPM6", "result": 86, "unit": "% Ctrl"}, {"measurement": "% Ctrl@1000 nM", "setting": "ULK2", "result": 100, "unit": "% Ctrl"}]}
